Earlier results in patent US4241056A, “Penicillins and salts thereof” (Boehringer Ingelheim GmbH, priority 1978, dated 1980).
Structures can show the parent of a compound that is named as a salt.

Assays:
various kinds of E. coli = details: cited from earlier work
Klebsiella = details: cited from earlier work
Pseudomonas = details: in vivo as well as in vitro; cited from earlier work

Row | SMILES | activity against various kinds of E. coli (various kinds of E. coli) | activity against Klebsiella (Klebsiella) | antipseudomonal activity (Pseudomonas)
1 | CC1(C)S[C@@H]2[C@H](NC(=O)[C@H](NC(=O)N3CCNC3=O)c3ccccc3)C(=O)N2[C@H]1C(=O)O [Azlocillin, 6-{D-α-[(2-oxo-imidazolidine-1-yl)carbonylamino]-4-phenyl-acetamino}-pencillanic acid sodium salt] | only a moderate activity | only a moderate activity | 
2 | CC1(C)S[C@@H]2[C@H](NC(=O)[C@H](C(=O)O)c3ccsc3)C(=O)N2[C@H]1C(=O)O [Ticarcillin] |  |  | only a poor activity
